Patent US4501747A, “Certain amide derivatives of 2-guanidino-thiazoles and compositions containing same” (Sanofi, priority 1982, dated 1985)
Counter-ions that a name gives are not always drawn. Like-named read-outs stand apart in the source and are kept apart here.

Columns and labels:
histamine H2 receptors = target: T1, histamine H2 receptors (Rattus norvegicus, UniProt P25102); assay: antisecretory activity: antagonism of the gastric acid hypersecretion induced by histamine in the atropinized rat (Ghosh and Schild, modified according to Black et al.); type: in vivo; settings: for ED50: read-out: DI50 (ID50: dose which inhibits by 50% the gastric hypersecretion induced by histamine)
T1 construct: from tissue; host or cells: stomach of the atropinized rat, in vivo (endogenous receptor)
T1 sequence (P25102 whole entry): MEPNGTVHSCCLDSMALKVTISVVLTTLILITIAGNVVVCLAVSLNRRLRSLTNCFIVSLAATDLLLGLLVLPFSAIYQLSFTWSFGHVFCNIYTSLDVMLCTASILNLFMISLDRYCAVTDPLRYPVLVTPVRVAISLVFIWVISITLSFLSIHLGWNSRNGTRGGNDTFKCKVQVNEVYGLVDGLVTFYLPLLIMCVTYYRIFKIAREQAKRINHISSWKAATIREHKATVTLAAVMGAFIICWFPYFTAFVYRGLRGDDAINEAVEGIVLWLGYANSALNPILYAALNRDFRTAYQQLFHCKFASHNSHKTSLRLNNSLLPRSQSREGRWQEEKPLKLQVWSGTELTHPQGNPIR
Protocol: According to this test, a gastric acid hypersecretion is induced by intravenous infusion of a sub-maximal dose of histamine equivalent to 15 mcmol/kg/hour and the gastric secretion is measured by perfusion of a physiological solution at a constant speed in the stomach of the animal.
Such a ID50 represents the index of the gastric H2 -blocking action.

[1] = acute toxicity by intraperitoneal route in the mouse; type: in vivo; settings: in vivo, ip
Description: (§1) With respect of their degree of activity, the compounds of the present invention are poorly toxic.

mouse = assay: as above; type: in vivo; settings: 375 mg/kg
Description: as §1

rat stomach = settings: i.v., as maleate; cited from earlier work
[2] = atropinized rat, intravenous route, single administration, histamine i.v. infusion 15 mcmol/kg/hour

Row | Structure (SMILES) | Relative potency (cimetidine = 1) (histamine H2 receptors; atropinized rat, i.v.) | ED50 (histamine H2 receptors; [2]) [µmol/kg] | also measured
1 | CS(=O)(=O)Nc1cccc(C(=O)NCCSCc2csc(NC(=N)N)n2)c1.Cl [SR 57938 A, 3-methanesulfonamido-N-[2-(2-guanidinothiazol-4-ylmethylthio)ethyl]benzamide hydrochloride] | 6.33 |  | activity compared with reference compounds (histamine H2 receptors; comparison in words, from Table I, atropinized rat, i.v.): ten times more active than "Compound A"; ED50 (histamine H2 receptors; rat, iv): 0.15 µmol/kg
2 | N=C(N)Nc1nc(CSCCNC(=O)c2ccc[n+]([O-])c2)cs1 [SR 57957 A, neutral fumarate of N-[2-(2-guanidinothiazol-4-ylmethylthio)ethyl]-3-pyridine carboxamide 1-oxide] | 9.5 | 0.1 | LD50 [1]: > 900 µmol/kg; mortality (mouse): does not cause any mortality
3 | N=C(N)Nc1nc(CSCCNC(=O)c2cccc(NS(=O)(=O)c3ccccc3)c2)cs1 [SR 57963 A, neutral fumarate of 3-benzenesulfonamido-N-[2-(2-guanidinothiazol-4-ylmethylthio)ethyl]benzamide] | 14.6 | 0.065 | 
4 | CNC(=C[N+](=O)[O-])NCCSCc1ccc(CN(C)C)o1 [Ranitidine, N-[2-[[5-[(dimethylamino)methyl]furfuryl]thio]ethyl]-N'-methyl-2-nitro-1,1-ethenediamine, reference compound] | 3.80 |  | 
5 | CS(=O)(=O)Nc1ccc(C(=O)NCCSCc2csc(NC(=N)N)n2)cc1 [Compound A, 4-methanesulfonamido-N-[2-(2-guanidinothiazol-4-ylmethylthio)ethyl]benzamide, reference compound] | 0.57 | 1.66 | 
6 | N=C(N)Nc1nc(CSCCNC(=O)c2cccnc2)cs1 [Compound B, N-[2-(2-guanidinothiazol-4-ylmethylthio)ethyl]nicotinamide, reference compound] | 7.39 | 0.28 | LD50 [1]: 342 µmol/kg
7 | N=C(N)Nc1nc(CSCCNC=O)cs1 [2-guanidino-4-[(2-formamido)ethylthiomethyl]thiazol] |  |  | ED50 (rat stomach): 0.25 mg/kg
